The text below walks through data of PMC5501782 (Scientific Reports, 2017).

Entries after “also recorded” stand apart in the source; their conditions may differ. Non-standard residues stand in square brackets, D forms with d. Residues, ends and D or L forms follow the SMILES beside them.

Data set [1] relates to VSV (293T cells). The format is cell-based, vesicular stomatitis virus.
The subject of data set [2] is Influenza virus (H1N1) A/Puerto Rico/8/34. The note with it: Influenza virus A/Puerto Rico/8/34, 48 h.
Data set [3] concerns Respiratory Syncytial Virus. Particulars: 48 h.
The subject of data set [4] is Enterovirus71. The format is cell-based.
Data set [5] concerns A/EM/Korea/W149/06 (W149, HPAI, H5N1). The note with it: mouse, in vivo.
Data set [6] concerns Influenza virus (H7N3) A/Aquatic bird/Korea/W44/2005. Particulars: 48 h.
Data set [7] concerns Parainfluenza virus. The note with it: 48 h.
Data set [8] relates to Coxsakievirus. The format is cell-based.
For data set [9], the system named is RSV (Hep2 cells). It is filed as cell-based, respiratory syncytial virus.
For data set [10], the system named is Newcastle disease virus. Particulars: 48 h.
In data set [11] the test system is Coxsackievirus (HeLa cells). It is filed as cell-based.
Data set [12] concerns PR8-GFP virus. The format is cell-based, influenza A virus.
For data set [13], the system named is Influenza virus (H9N2) A/Chicken/Korea/116/2004. The note with it: 48 h.
Data set [14] has as its system Herpes simplex virus. Particulars: 48 h.
Data set [15] relates to Porcine epidemic diarrhea virus. The note with it: 48 h.
For data set [16], the system named is MDCK cells.
Data set [17] concerns PR8-GFP virus. Further details: species or system influenza A virus.
Data set [18] relates to influenza virus (A/Puerto Rico/8/34, PR8) expressing green fluorescent protein (PR8-GFP). The format is cell-based.
For data set [19], the system named is Vesicular stomatitis virus. Particulars: 48 h.
Data set [20] relates to Influenza virus (H5N2) A/bird/Korea/W81/2005. Particulars: Influenza virus A/bird/Korea/W81/2005, 48 h.
Data set [21] concerns autophagy. The note with it: cited from earlier work.

One may read the IC50 as the concentration that gives 50% inhibition. Read a low IC50 as inhibition by little substance. On to `CC(C)C[C@@H](NC(=O)[C@@H](CC(C)C)NC(=O)[C@@H](CC(N)=O)NC(=O)[C@H](NC(=O)[C@@H](Cc1ccccc1)NC(=O)CNC(=O)[C@@H](Cc1ccc(O)cc1)NC(=O)CNC(=O)[C@@H](CCCNC(=N)N)NC(=O)[C@@H](CCCCN)NC(=O)[C@@H](CCCCN)NC(=O)[C@@H](CCCNC(=N)N)NC(=O)[C@@H](CCCNC(=N)N)NC(=O)[C@@H](CCC(N)=O)NC(=O)[C@@H](CCCNC(=N)N)NC(=O)[C@@H](CCCNC(=N)N)NC(=O)[C@H](N)CCCNC(=N)N)C(C)C)C(=O)N[C@H](Cc1ccccc1)C(=O)N[C@H](CC(C)C)C(=O)N[C@@H](C(=O)N[C@@H](C(=O)N[C@H](CCC(=O)O)C(=O)O)C(C)C)C(C)C` [TAT-Kα2] (H-[dR][dR][dR][dQ][dR][dR][dK][dK][dR]G[dY]G[dF][dV][dN][dL][dL][dF][dL][dV][dV][dE]-OH), for which the inhibition of infection result in [1] and in data set [9] was “inhibited” throughout. In addition, the 50% inhibitory concentration (IC50) in [2] was 500 nM; in [3] it was 3400 nM; in data set [4], “No”; in data set [6], 1200 nM; in data set [7], 2400 nM; in data set [8], “No”. Moreover, the IC50 in data set [10] is 800 nM; in data set [13], 700 nM; in [14], 5700 nM; in data set [15], 3500 nM; in data set [19], 2900 nM; in data set [20], 800 nM. In addition, the virucidal effect result in data set [4] and in data set [11] was “did not show any virucidal effects” throughout. The “difference in body weight percentage among groups” value in data set [5] is recorded as “more than 20%”. Further, in [5], the lung histopathology result is listed as “intact lung tissues”. Also, the lung virus titer entry in data set [5] is given as “no virus was detected”. Further, in [5], the survival rate is 100%. Further, the virus transmission result in [12] was “suppressed”. In addition, the “cytotoxicity or CPE” value in data set [16] was “no cytotoxicity or CPE”. Moreover, the “infectivity of virus in positive fractions in vitro” value in data set [17] is listed as “did not”. In addition, the “antiviral action at attachment step” value in data set [18] is on record as “inhibition of virus infection”. Further, in [18], the “antiviral action at post-attachment step” value is “unable to inhibit virus infection”. Moreover, the “antiviral action at pre-attachment step” value in data set [18] is “antiviral activity”. Also, the “infection of MDCK cells by peptide-treated PR8-GFP” value in data set [18] was “strongly diminished”. The “infectivity of PR8-GFP virus” value in data set [18] was “dramatically suppressed; also recorded: no viral infection was detected”. Besides, the “reduction in the virus titer” value in data set [18] is on record as “approximately 40%”.

As to EVVLFLLNVF [Kα2], in [21], the autophagy induction entry was “robust autophagy inducer”.
